Consider 16 compounds from US12540118B2, “Dendrene amide compound, bactericide and use thereof” (Jiangsu Flag Chemical Industry Co., Ltd., priority 2020, dated 2026).

SMILES strings stand for the structures. Bounds are passed on as bounds.

For one test, the system named is Erysiphe graminis. The experiment in a line: Erysiphe graminis potting method. Type of test: in vivo. The procedure: The fungicidal activity of the control agents and target compounds are determined. The test and investigation method refers to SOP-SC-1116 Erysiphe graminis potting method in disinfectant rolls written by KANGZHUO and GUBAOGEN in “Standard operation specification for testing biological activity of pesticides”.

A further test deals with T1, succinate dehydrogenase (Sus scrofa, UniProt A5GZW8+D0VWV4+Q007T0).
T1 construct: isolated from porcine hearts; from tissue; host or cells: porcine heart
The experiment in a line: Enzyme activity assay, succinate dehydrogenase (DCIP reduction). Format: biochemical, porcine. The note with it: read-out: Inhibitors (10 μM, SQR). How it is done: The inhibitory activities of control agents and target compounds on succinate dehydrogenase are determined.
The enzyme used in this test example is succinate dehydrogenase, which is isolated from porcine hearts.
The test method comprises the following steps: The total volume of the system is 1.8 ml, and the system contained 100 mM Na2HPO4—NaH2PO4 buffer (pH=7.4), 0.3 mM EDTA, 20 mM sodium succinate, 53 μM DCIP (2,6-dichloroindophenol sodium), and 2 nM succinate dehydrogenase. Thermostatic waterbath at 23° C. and magnetic stirring at 600 rpm. The decrease in the light absorption of the substrate DCIP is monitored at a wavelength of 600 nm and experimental points in a linear range are collected. Control substrate consumption not more than 5% of the experimental points. The molar extinction coefficient of DCIP is 21 mM^−1 cm^−1. And calculating the reduction yield of the DCIP in the reaction time, fitting a linear slope, and deducting the baseline slope to obtain the initial reaction speed.

For another test, the system named is Sphaerotheca fuliginea. As to the kind of experiment: Sphaerotheca fuliginea potting method. Conditions: 100 mg/L; for pest or weed control at 100 µg/mL: Podosphaera fuliginea, read-out: Sphaerotheca fuliginea control rating. Type of test: in vivo. The procedure: The fungicidal activity of the control agents and target compounds are determined. The test and investigation method refers to SOP-SC-1101 sphaerotheca fuliginea potting method in disinfectant rolls written by KANGZHUO and GUBAOGEN in “Standard operation specification for testing biological activity of pesticides”.

The mark [1] stands for this setting: Blumeria graminis, 100 mg/L, read-out: Erysiphe graminis control rating.

T1 sequence (Q0QF01 43-664 partner): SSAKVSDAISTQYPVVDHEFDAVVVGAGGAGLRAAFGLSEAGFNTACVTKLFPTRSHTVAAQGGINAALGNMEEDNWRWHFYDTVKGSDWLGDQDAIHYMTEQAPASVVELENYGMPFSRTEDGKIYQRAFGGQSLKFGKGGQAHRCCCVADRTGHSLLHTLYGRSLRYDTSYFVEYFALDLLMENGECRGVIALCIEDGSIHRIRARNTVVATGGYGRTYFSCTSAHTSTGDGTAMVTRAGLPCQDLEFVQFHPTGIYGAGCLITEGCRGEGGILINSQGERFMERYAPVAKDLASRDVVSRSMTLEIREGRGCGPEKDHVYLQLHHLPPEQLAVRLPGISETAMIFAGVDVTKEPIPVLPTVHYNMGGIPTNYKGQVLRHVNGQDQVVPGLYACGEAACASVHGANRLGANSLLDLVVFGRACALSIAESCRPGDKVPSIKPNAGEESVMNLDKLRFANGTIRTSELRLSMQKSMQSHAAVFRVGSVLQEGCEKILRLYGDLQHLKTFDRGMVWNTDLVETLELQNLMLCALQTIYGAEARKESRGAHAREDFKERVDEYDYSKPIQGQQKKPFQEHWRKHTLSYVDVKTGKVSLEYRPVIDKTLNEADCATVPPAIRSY
T1 sequence (Q007T0 29-280): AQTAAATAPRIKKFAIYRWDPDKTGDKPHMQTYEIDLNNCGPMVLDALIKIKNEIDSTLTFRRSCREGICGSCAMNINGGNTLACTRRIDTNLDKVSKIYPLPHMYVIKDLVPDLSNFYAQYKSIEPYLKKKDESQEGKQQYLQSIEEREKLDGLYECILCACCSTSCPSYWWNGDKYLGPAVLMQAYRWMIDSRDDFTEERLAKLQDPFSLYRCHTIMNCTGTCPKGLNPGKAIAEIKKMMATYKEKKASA
T1 sequence (D0VWV4 30-169): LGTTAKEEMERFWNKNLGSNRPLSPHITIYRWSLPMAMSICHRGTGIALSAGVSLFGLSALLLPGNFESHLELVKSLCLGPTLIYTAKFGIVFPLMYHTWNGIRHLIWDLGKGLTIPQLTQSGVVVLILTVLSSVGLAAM
T1 sequence (A5GZW8 57-159 limits assumed): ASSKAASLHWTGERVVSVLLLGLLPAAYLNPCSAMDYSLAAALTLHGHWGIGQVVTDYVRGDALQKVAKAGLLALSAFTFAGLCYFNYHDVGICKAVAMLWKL

With `C=C(CN(C(=O)c1c(C(F)F)nn(C)c1F)C1CC1)c1cc(Cl)cc(Cl)c1` [Compound 2], the pest or weed control at 100 µg/mL in the test with Erysiphe graminis (setting [1]) and in the test with Sphaerotheca fuliginea was 80 to 100% in each case. Besides, the inhibition at 10 µM at succinate dehydrogenase is greater than 90%.
Turning to `C=C(CN(C(=O)c1c(C(F)F)nn(C)c1F)C1CC1)c1ccccc1Br` [Compound 3], the pest or weed control at 100 µg/mL in the test on Erysiphe graminis (setting [1]) and in the test with Sphaerotheca fuliginea was 80 to 100% throughout. On succinate dehydrogenase, the inhibition at 10 µM was greater than 90%.
Regarding `C=C(CN(C(=O)c1c(C(F)F)nn(C)c1F)C1CC1)c1ccc(C)cc1` [Compound 4], the values for the pest or weed control at 100 µg/mL with Erysiphe graminis (setting [1]) and in the test with Sphaerotheca fuliginea were 80 to 100% and less than 70%, respectively. Moreover, the inhibition at 10 µM at succinate dehydrogenase is greater than 90%.
On to `C=C(CN(C(=O)c1c(C(F)F)nn(C)c1F)C1CC1)c1cccc(Br)c1` [Compound 5], for which the results for the pest or weed control at 100 µg/mL in the test on Erysiphe graminis (setting [1]) and with Sphaerotheca fuliginea were 80 to 100% and less than 70%, respectively. Also, the inhibition at 10 µM on succinate dehydrogenase was greater than 90%.
In the case of `C=C(CN(C(=O)c1c(C(F)F)nn(C)c1F)C1CC1)c1ccccc1C` [Compound 6], the pest or weed control at 100 µg/mL in the test with Erysiphe graminis (setting [1]) and in the test on Sphaerotheca fuliginea was 80 to 100% each time. Moreover, the inhibition at 10 µM at succinate dehydrogenase was greater than 90%.
For `C=C(CN(C(=O)c1c(C(F)F)nn(C)c1F)C1CC1)c1ccccc1Cl` [Compound 7], the pest or weed control at 100 µg/mL with Erysiphe graminis (setting [1]) and in the test on Sphaerotheca fuliginea was 80 to 100% each time. Further, on succinate dehydrogenase, the inhibition at 10 µM is greater than 90%.
Consider `C=C(CN(C(=O)c1c(C(F)F)nn(C)c1F)C1CC1)c1cccc(Cl)c1Cl` [Compound 8], for which the pest or weed control at 100 µg/mL in the test with Erysiphe graminis (setting [1]) and in the test with Sphaerotheca fuliginea was 80 to 100% throughout. Besides, on succinate dehydrogenase, the inhibition at 10 µM is greater than 90%.
Turning to `C=C(CN(C(=O)c1c(C(F)F)nn(C)c1F)C1CC1)c1ccccc1` [Compound 9], the pest or weed control at 100 µg/mL in the test with Erysiphe graminis (setting [1]) is 80 to 100%; in the test with Sphaerotheca fuliginea, less than 70%. Besides, the inhibition at 10 µM on succinate dehydrogenase is greater than 90%.
On the same counts, the results for `C=C(CN(C(=O)c1c(C(F)F)nn(C)c1F)C1CC1)c1ccc(Cl)c(Cl)c1` [Compound 10] are 80 to 100%, 80 to 100% and greater than 90%.
Take `C=C(CN(C(=O)c1c(C(F)F)nn(C)c1F)C1CC1)c1ccc(Cl)c(C(F)(F)F)c1` [Compound 11]: the pest or weed control at 100 µg/mL in the test on Erysiphe graminis (setting [1]) and with Sphaerotheca fuliginea was 80 to 100% each time. Besides, at succinate dehydrogenase, the inhibition at 10 µM was greater than 90%.
Consider `C=C(CN(C(=O)c1c(C(F)F)nn(C)c1F)C1CC1)c1cccc(F)c1F` [Compound 12], for which the pest or weed control at 100 µg/mL is 80 to 100% in the test on Erysiphe graminis (setting [1]) and 70 to 80% in the test on Sphaerotheca fuliginea. Moreover, the inhibition at 10 µM at succinate dehydrogenase was greater than 90%.
Turning to `C=C(CN(C(=O)c1c(C(F)F)nn(C)c1F)C1CC1)c1cc(F)c(Cl)cc1Cl` [Compound 13], the pest or weed control at 100 µg/mL in the test on Erysiphe graminis (setting [1]) and in the test with Sphaerotheca fuliginea was 80 to 100% throughout. The inhibition at 10 µM on succinate dehydrogenase was greater than 90%.
Take `C=C(CN(C(=O)c1c(C(F)F)nn(C)c1F)C1CC1)c1cc(Cl)ccc1Cl` [Compound 14]: the pest or weed control at 100 µg/mL in the test on Erysiphe graminis (setting [1]) and in the test with Sphaerotheca fuliginea was 80 to 100% each time. For the same compound, the inhibition at 10 µM on succinate dehydrogenase was greater than 90%.
As for `C=C(CN(C(=O)c1c(C(F)F)nn(C)c1F)C1CC1)c1ccc(S(C)(=O)=O)cc1` [Compound 15], the pest or weed control at 100 µg/mL is 80 to 100% with Erysiphe graminis (setting [1]) and 70 to 80% in the test with Sphaerotheca fuliginea. In addition, on succinate dehydrogenase, the inhibition at 10 µM was greater than 90%.
As for `CNC(=O)/C(=N/OC)c1ccccc1CO/N=C(C)/C=C/c1c(Cl)cccc1Cl` [Fenaminstrobin, reference compound], the “Erysiphe graminis control rating” value is “B (70% ≤ B < 80%)” in the test with Erysiphe graminis (6.25 mg/L), “A (80% ≤ A ≤ 100%)” in the test with Erysiphe graminis (25 mg/L) and “A (80% ≤ A ≤ 100%)” with Erysiphe graminis (100 mg/L). For the same compound, in the test on Sphaerotheca fuliginea, the “Sphaerotheca fuliginea control rating” value is recorded as “B (70% ≤ B < 80%)”.
In the case of `OC(Cc1ccccc1Cl)(Cn1nc[nH]c1=S)C1(Cl)CC1` (centres unmarked) [Prothioconazole, reference compound], the pest or weed control at 6.25 µg/mL with Erysiphe graminis (Blumeria graminis, 6.25 mg/L, read-out: Erysiphe graminis control rating) was 70 to 80%. For the same compound, in the test with Erysiphe graminis (Blumeria graminis, 25 mg/L, read-out: Erysiphe graminis control rating), the pest or weed control at 25 µg/mL is 80 to 100%. In addition, the results for the pest or weed control at 100 µg/mL with Erysiphe graminis (setting [1]) and with Sphaerotheca fuliginea were 80 to 100% and 70 to 80%, respectively.
